The subject of series [1] is Salmonella enterica serovar Typhimurium 14028s. The series is described as follows: Minimum inhibitory concentration by microdilution method. The class given is cell-based. The note with it: broth dilution, 18 h. For orientation: Broth dilution looks for growth in wells or tubes with falling amounts of substance.
The test system of series [2] is Escherichia coli ATCC 25922. The description is as above. The series is classed as cell-based. The note with it: ATCC25922, broth dilution, 18 h.
Series [3] concerns Colo 320. As to the kind of experiment: Assay for cytotoxic effect (MTT). The note with it: for cytotoxic effect (in words): Colo 320, applied concentration up to 100 μM; for IC50: resistant Colo 320 cells, MTT, 24 h. The series is classed as cell-based, human. How it is done:
(§1) The human colon adenocarcinoma cell lines, the Colo 205 (ATCC-CCL-222) doxorubicin-sensitive parent and Colo 320/MDR-LRP (ATCC-CCL-220.1) resistant to anticancer agents expressing ABCB1, were purchased from LGC Promochem (Teddington, UK). The cells were cultured in RPMI-1640 medium supplemented with 10% heat-inactivated fetal bovine serum (FBS), 2 mM L-glutamine, 1 mM Na-pyruvate, 100 mM Hepes, nystatin, and a penicillin–streptomycin mixture in concentrations of 100 U/L and 10 mg/L, respectively. The MRC-5 (ATCC CCL-171) human embryonic lung fibroblast cell line (LGC Promochem) was cultured in EMEM medium, supplemented with 1% nonessential amino acid (NEAA) mixture, 10% heat-inactivated FBS, 2 mM L-glutamine, 1 mM Na-pyruvate, nystatin, and a penicillin–streptomycin mixture in concentrations of 100 U/L and 10 mg/L, respectively. The cell lines were incubated in a humidified atmosphere (5% CO2, 95% air) at 37 °C.
(§2) The effects of increasing concentrations of the compounds on cell growth were tested in 96-well flat-bottomed microtiter plates. The two-fold serial dilutions of the tested compounds were made starting with 100 μM. Then, 10^4 of human colonic adenocarcinoma cells in 100 μL of the medium (RPMI-1640) were added to each well, except for the medium control wells. The adherent human embryonic lung fibroblast cell line (10^4/well) was seeded in EMEM medium in 96-well flat-bottomed microtiter plates for 4 h before the assay. The serial dilutions of the compounds were made in a separate plate starting with 100 μM, and then transferred to the plates containing the adherent corresponding cell line. Culture plates were incubated at 37 °C for 24 h; at the end of the incubation period, 20 μL of MTT (thiazolyl blue tetrazolium bromide) solution (from a 5 mg/mL stock solution) were added to each well. After incubation at 37 °C for 4 h, 100 μL of sodium dodecyl sulfate (SDS) solution (10% SDS in 0.01 M HCl) were added to each well and the plates were further incubated at 37 °C overnight. Cell growth was determined by measuring the optical density (OD) at 540 nm (ref. 630 nm) with a Multiscan EX ELISA reader (Thermo Labsystems, Cheshire, WA, USA). Inhibition of cell growth was expressed as IC50 values, defined as the inhibitory dose that reduces the growth of the cells exposed to the tested compounds by 50%. IC50 values and the SD of triplicate experiments were calculated using GraphPad Prism software version 5.00 for Windows with nonlinear regression curve fit (GraphPad Software, San Diego, CA, USA; www.graphpad.com). The statistical analysis of data was performed using GraphPad Prism software version 5.00, applying the two-tailed t-test.

Series [4] has as its system MRC-5. As to the kind of experiment: Assay for cytotoxic effect (MTT). The note with it: for IC50: normal MRC-5 embryonal fibroblast cells, MTT, 24 h; for cytotoxic effect (in words): MRC-5, applied concentration up to 100 μM. The class given is cell-based, human. How it is done:
as §1, §2

Series [5] relates to Colo 205. As to the kind of experiment: Assay for cytotoxic effect (MTT). The series is classed as cell-based, human. The conditions noted are these: for cytotoxic effect (in words): Colo 205, applied concentration up to 100 μM; for IC50: sensitive Colo 205 cells, MTT, 24 h. How it is done:
as §1, §2

Series [6] deals with S. aureus 27,213 (methicillin and ofloxacin resistant clinical isolate). The series is described as follows: Minimum inhibitory concentration by microdilution method. The series is classed as cell-based. The conditions noted are these: Staphylococcus aureus; broth dilution, 18 h.
Series [7] has as its target T1, P-glycoprotein (P-gp) (Homo sapiens, UniProt P08183).
T1 construct: Colo 320/MDR-LRP (ATCC-CCL-220.1) resistant to anticancer agents expressing ABCB1
The series is described as follows: Rhodamine 123 accumulation assay (flow cytometry). The class given is cell-based. Set-up: key to FAR (fluorescence activity ratio): FAR = (Colo320 treated/control)/(Colo205 treated/control). The note with it: for FSC / SSC: Colo 320. How it is done: The cell numbers of the human colon adenocarcinoma cell lines were adjusted to 2 × 10^6 cells/mL, re-suspended in serum-free RPMI 1640 medium, and distributed in 0.5 mL aliquots into Eppendorf centrifuge tubes. The tested compounds were added at concentrations of 2 or 20 μM, and the samples were incubated for 10 min at room temperature. Tariquidar was applied as positive control at 0.2 μM. DMSO at 2% v/v was used as solvent control. Next, 10 µL (5.2 µM final concentration) of the fluorochrome and ABCB1 substrate rhodamine 123 (Sigma) were added to the samples and the cells were incubated for a further 20 min at 37 °C, washed twice, and re-suspended in 1 mL PBS for analysis. The fluorescence of the cell population was measured with a PartecCyFlow® flow cytometer (Partec, Münster, Germany). The fluorescence activity ratio was calculated as the quotient between the FL-1 of the treated/untreated resistant Colo 320 cell line over the treated/untreated sensitive Colo 205 cell line according to the following equation [31]:(1) FAR = Colo320treated/Colo320control/Colo205treated/Colo205control

For series [8], the system named is Staphylococcus aureus ATCC 25,923. As to the kind of experiment: Minimum inhibitory concentration by microdilution method. The class given is cell-based. The conditions noted are these: ATCC25, broth dilution, 18 h.
Series [9] has as its system Colo 320. As to the kind of experiment: Checkerboard combination assay with doxorubicin. The class given is cell-based, human. The note with it: for Fraction affected: Colo 320; for Dm (median-effect dose) in the combination: FuTo III:Doxo ratio 11:1, dose of the named component; for Dm (median-effect dose) in the combination / Dm (median-effect dose), drug alone: Colo 320, 72 h; for Dm (median-effect dose), drug alone: single drug, CompuSyn. How it is done: A checkerboard microplate method was applied to study the effect of drug interactions between the compound 8 and the chemotherapeutic drug doxorubicin. The assay was carried out on Colo 320 colon adenocarcinoma cell line. The final concentration of the compounds and doxorubicin used in the combination experiment was chosen in accordance with their cytotoxicity towards this cell line. The dilutions of doxorubicin were made in a horizontal direction for the 100 μL volume, and the dilutions of the compounds were made vertically in the microtiter plate for the 50 μL volume. Then, 6 × 10^3 of Colo 320 cells in 50 μL of the medium were added to each well, except for the medium control wells. The plates were incubated for 72 h at 37 °C in 5% CO2 atmosphere. The cell growth rate was determined after MTT staining. At the end of the incubation period, 20 μL of MTT solution (from a stock solution of 5 mg/mL) were added to each well. After incubation at 37 °C for 4 h, 100 μL of SDS solution (10% in 0.01 M HCI) were added to each well and the plates were further incubated at 37 °C overnight. OD was measured at 540 nm (ref. 630 nm) with a Multiscan EX ELISA reader. Combination index (CI) values at 50% of the growth inhibition dose (ED50) were determined using CompuSyn software (ComboSyn, Inc., Paramus, NJ, USA) to plot four to five data points at each ratio. CI values were calculated by means of the median-effect equation, according to the Chou–Talalay method, where CI < 1, CI = 1, and CI > 1 represent synergism, additive effect (or no interaction), and antagonism, respectively.

Setting [10] is: Fa 0.6829, combination FuTo III + Doxo.
[11] abbreviates: Fa 0.741889, combination FuTo III + Doxo.
Where [12] appears, read: Fa 0.80679, combination FuTo III + Doxo.
[13] abbreviates: Fa 0.912987, combination FuTo III + Doxo.

T1 sequence (P08183 whole entry): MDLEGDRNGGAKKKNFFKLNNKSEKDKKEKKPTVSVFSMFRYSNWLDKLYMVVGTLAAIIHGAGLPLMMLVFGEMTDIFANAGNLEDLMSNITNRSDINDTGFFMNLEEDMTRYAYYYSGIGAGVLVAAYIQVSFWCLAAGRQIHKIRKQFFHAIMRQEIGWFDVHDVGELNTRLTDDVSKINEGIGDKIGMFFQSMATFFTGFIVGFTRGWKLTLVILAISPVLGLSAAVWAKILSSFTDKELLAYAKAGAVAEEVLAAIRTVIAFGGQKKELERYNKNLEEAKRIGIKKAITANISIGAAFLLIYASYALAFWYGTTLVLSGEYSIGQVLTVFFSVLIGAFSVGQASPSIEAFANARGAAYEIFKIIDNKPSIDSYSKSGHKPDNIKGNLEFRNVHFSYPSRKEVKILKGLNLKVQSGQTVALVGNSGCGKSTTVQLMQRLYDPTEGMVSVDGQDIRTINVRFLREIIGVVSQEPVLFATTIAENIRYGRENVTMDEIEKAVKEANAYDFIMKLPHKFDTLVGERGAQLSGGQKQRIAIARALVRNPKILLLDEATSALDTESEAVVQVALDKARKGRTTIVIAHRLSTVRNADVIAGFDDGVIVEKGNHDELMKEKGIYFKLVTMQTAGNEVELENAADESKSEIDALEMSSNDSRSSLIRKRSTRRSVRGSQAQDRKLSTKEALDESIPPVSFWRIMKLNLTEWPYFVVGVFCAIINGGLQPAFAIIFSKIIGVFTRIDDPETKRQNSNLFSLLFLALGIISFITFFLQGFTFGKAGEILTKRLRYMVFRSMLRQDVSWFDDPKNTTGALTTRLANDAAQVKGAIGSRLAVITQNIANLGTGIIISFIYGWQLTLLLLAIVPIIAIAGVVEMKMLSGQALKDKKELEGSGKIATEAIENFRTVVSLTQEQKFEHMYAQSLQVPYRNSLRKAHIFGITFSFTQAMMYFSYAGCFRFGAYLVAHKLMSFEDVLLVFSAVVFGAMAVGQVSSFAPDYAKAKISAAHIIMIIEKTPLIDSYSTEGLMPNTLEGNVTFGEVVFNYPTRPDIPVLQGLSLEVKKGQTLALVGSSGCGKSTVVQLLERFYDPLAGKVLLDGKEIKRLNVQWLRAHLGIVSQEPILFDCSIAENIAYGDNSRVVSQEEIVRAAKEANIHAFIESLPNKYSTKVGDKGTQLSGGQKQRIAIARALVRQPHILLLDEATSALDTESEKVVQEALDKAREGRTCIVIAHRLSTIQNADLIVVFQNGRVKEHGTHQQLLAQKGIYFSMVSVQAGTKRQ

Regarding `CC(C)=CC[C@H](O)[C@@H](C)[C@H]1CC[C@@]2(C)C3=C(CC[C@]12C)[C@@]1(C)CC[C@@](C)(C(=O)O)[C@@H]1CC3` [Compound 1, 22S-hydroxy-8,24-dien-3-norlanosta-28-oic acid], the MIC in series [1], in series [2], in [6] and in series [8] was greater than 100 µM in each case. The “cytotoxic effect (in words)” value in series [3], in series [4] and in series [5] was “did not show any significant effect” throughout. For the same molecule, the IC50 in series [3] (Homo sapiens) was greater than 100 µM; in [4] (Homo sapiens, MRC5), greater than 100 µM; in series [5] (Homo sapiens) it was greater than 100 µM. Besides, the FSC in series [7] (20 μM) is listed as 2005. In series [7] (20 μM), the SSC stood at 851. Moreover, the “FAR (fluorescence activity ratio)” value in [7] (20 μM, Colo 320, rhodamine-123) was 1.139.
For the molecule `CC(C)=CC[C@H](O)[C@@H](C)[C@H]1CC[C@@]2(C)C3=C(CC[C@]12C)[C@@]1(C)CC[C@H](O)[C@@](C)(C(=O)O)[C@@H]1CC3` [Compound 6, senexdiolic acid], the MIC in series [1], in [2], in [6] and in [8] was greater than 100 µM in each case. Further, the IC50 was greater than 100 µM in [3] (Homo sapiens); greater than 100 µM in series [4] (Homo sapiens, MRC5); greater than 100 µM in [5] (Homo sapiens). Further, the FSC in series [7] (20 μM) was 2074. Also, the SSC in series [7] (20 μM) turned out to be 861. Moreover, in series [7] (20 μM, Colo 320, rhodamine-123), the “FAR (fluorescence activity ratio)” value was found to be 1.027.
Consider `Cc1coc(C(=O)[C@@H](C)[C@H]2CC[C@@]3(C)C4=C(CC[C@]23C)[C@@]2(C)CC[C@@](C)(C(=O)O)[C@@H]2CC4)c1` [Compound 7, natalic acid], for which the MIC in series [1], in [2], in series [6] and in series [8] was greater than 100 µM in each case. Also, the “cytotoxic effect (in words)” value in [3], in series [4] and in series [5] was “did not show any significant effect” in each case. Further, the IC50 was greater than 100 µM in series [3] (Homo sapiens); greater than 100 µM in series [4] (Homo sapiens, MRC5); greater than 100 µM in series [5] (Homo sapiens). Further, in series [7] (20 μM), the FSC turned out to be 2095. Besides, the SSC in series [7] (20 μM) was 891. Besides, the “FAR (fluorescence activity ratio)” value in [7] (20 μM, Colo 320, rhodamine-123) is given as 1.053.
For the molecule `COc1cccc2c1C(=O)c1c(O)c3c(c(O)c1C2=O)C[C@@](O)(C(=O)CO)C[C@@H]3O[C@H]1C[C@H](N)[C@H](O)[C@H](C)O1` [Doxorubicin, doxorubicin], the IC50 was 7.44 ± 0.2 µM in series [3] (Homo sapiens); greater than 20 µM in series [4] (Homo sapiens, MRC5); 2.46 ± 0.26 µM in series [5] (Homo sapiens). For the same molecule, the Fraction affected in series [9] (Doxo alone 0.135 uM) was 0.6475; in [9] (Doxo alone 0.269 uM), 0.7257; in series [9] (Doxo alone 0.539 uM), 0.8038; in series [9] (Doxo alone 1.078 uM), 0.9263; in series [9] (Doxo alone 4.311 uM) it was 0.9749. Moreover, the “Dose Reduction Index (DRI) for experimental values” is given as 1.374 in [9] (setting [10]), 0.937 in series [9] (setting [11]), 0.702 in series [9] (setting [12]) and 0.475 in [9] (setting [13]). Also, the “Dm (median-effect dose) in the combination” value in series [9] came out at 0.04246 µM. Further, the “Dm (median-effect dose), drug alone” value in [9] turned out to be 0.08504 µM.
On to `COc1cc2c(cc1OC)CN(CCc1ccc(NC(=O)c3cc(OC)c(OC)cc3NC(=O)c3cnc4ccccc4c3)cc1)CC2` [Tariquidar, reference compound], for which, in series [7] (0.2 μM), the FSC worked out at 1945 and the SSC came to 837. Further, the “FAR (fluorescence activity ratio)” value in series [7] (0.2 μM, Colo 320, rhodamine-123) amounted to 5.533.
In the case of ergosta-7,22-diene-3-one [Compound 8], the IC50 in series [3] stood at 8.43 ± 1.1 µM; in series [4] it was 7.92 ± 1.42 µM; in [5], 11.7 ± 1.67 µM. The FSC in series [7] (2 μM) is recorded as 2099. For the same molecule, the SSC in series [7] (2 μM) is reported as 857. Moreover, the “FAR (fluorescence activity ratio)” value in series [7] (2 μM, Colo 320, rhodamine-123) amounted to 0.872. Besides, the “FL-1 (mean fluorescence of the cells)” value in series [7] (2 μM, Colo 320, rhodamine-123) turned out to be 10.100. In addition, the “Dose Reduction Index (DRI) for experimental values” in series [9] (setting [10]) turned out to be 18.211; in series [9] (setting [11]), 10.119; in series [9] (setting [12]), 5.811; in [9] (setting [13]), 2.045. Besides, the Fraction affected in series [9] (FuTo III alone 6.25 uM) was 0.0295; in series [9] (FuTo III alone 12.5 uM) it was 0.2522; in series [9] (FuTo III alone 25 uM), 0.5605. Also, the “Dm (median-effect dose) in the combination” value in [9] turned out to be 0.4671 µM. Further, in [9] (compound 8 combined with doxorubicin, ratio 11.2:1, Colo 320, 72 h), the “combination index (CI) at the 50% growth inhibition dose (ED50)” value is 0.521 ± 0.15. Further, the “Dm (median-effect dose), drug alone” value in series [9] came out at 21.37 µM.

By MIC is commonly meant the lowest concentration found to suppress growth. Usually IC50 stands for the point on the concentration scale where inhibition reaches its midpoint.
